Results taken from US6552059B2, “Pharmaceutical composition for and method of treating leukemia” (priority 1995, dated 2003).
Read-outs that look alike come from different tables or passages of the source.

Key:
[1] = system: leukemia (P388SS); format: in vivo, mouse; settings: for % increase in survival time versus nontreated control: control = 100
Experimental: In an in vivo mouse study for leukemia (P388SS), carbendazim (2-carbonylaminobenzimidazole) was tested in combination with griseofulvin.

[2] = system: leukemia (P338); format: in vivo; settings: ten mice; for mean number of survival days: dosed 5 days, off 2, dosed 5, off 3
Experimental: Mice were randomly selected and divided into five groups of ten mice each: Group 1—a control group receiving canola oil but no drug treatment; Group 2—a treatment group receiving 125 mg of cytoxan (2-bis(2-chloroethyl)-amino-1-oxo-2-aza-5-oxophosphoridin) per kg of body weight; Group 3—a treatment group receiving 4000 mg of carbendazim per kg of body weight; Group 4—a treatment group receiving 2500 mg of carbendazim per kg of body weight; and Group 5—a treatment group receiving 1000 mg of carbendazim per kg of body weight. The five groups were infected with leukemia (P338). The diseased animals were dosed for five days, off two days, dosed again for another five days and off again for three days.

Structure (SMILES): COC1=CC(=O)C[C@@H](C)[C@]12Oc1c(Cl)c(OC)cc(OC)c1C2=O [Griseofulvin]
- % increase in survival time versus nontreated control ([1]; griseofulvin 3000 mg/kg, carbendazim 0 mg/kg): 130%
- % increase in survival time versus nontreated control ([1]; griseofulvin 4000 mg/kg, carbendazim 0 mg/kg): 165%
- % increase in survival time versus nontreated control ([1]; griseofulvin 5000 mg/kg, carbendazim 0 mg/kg): 213%

Structure (SMILES): COC(=O)Nc1nc2ccccc2[nH]1 [carbendazim, 2-(methoxycarbonylamino)benzimidzole]
- % increase in survival time versus nontreated control ([1]; griseofulvin 0 mg/kg, carbendazim 1000 mg/kg): 153%
- % increase in survival time versus nontreated control ([1]; griseofulvin 0 mg/kg, carbendazim 2000 mg/kg): 190%
- % increase in survival time versus nontreated control ([1]; griseofulvin 0 mg/kg, carbendazim 3000 mg/kg): 176%
- mean number of survival days ([2]; Group 3, 4000 mg carbendazim per kg, after infection with leukemia): 17.3 days
- mean number of survival days ([2]; Group 4, 2500 mg carbendazim per kg): 16.5 days
- mean number of survival days ([2]; Group 5, 1000 mg carbendazim per kg): 14.1 days

Structure (SMILES): O=P1(N(CCCl)CCCl)NCCCO1 (centres unmarked) [cytoxan, 2-bis(2-chloroethyl)-amino-1-oxo-2-aza-5-oxophosphoridin, reference compound]
- deaths during the test period ([1]; positive control, 300 mg/kg (qdx1)): no deaths
- deaths after infection with leukemia ([2]; Group 2, 125 mg cytoxan per kg, up to twenty one days after infection): none died
